Laboratory results: patent US8192962B2, “Processes for detecting toxic substances” (Daikin Industries, Ltd., priority 2001, dated 2012)

System: Detoxification protein genes
Experiment: DNA chip mRNA expression in yeast, detoxification protein genes (Table 8)
Assay type: cell-based, Saccharomyces cerevisiae S288C
Procedure, shortened: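 S. cerevisiae S288C grown at 25° C in YPD were exposed in log phase for two hours to one toxic chemical at a growth-inhibiting, non-lethal concentration; untreated cells served as control. Poly(A) mRNA was reverse-transcribed with Cy3/Cy5-dUTP and hybridized to a whole-genome yeast DNA chip at 65° C for over 12 hours; values are fluorescence ratios versus untreated.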

`COc1cc(CNC(=O)CCCCC=CC(C)C)ccc1O` [(12), 8-methyl-N-vanillyl-6-nonenamide] was tested, and the “The level of expressed mRNA in the presence of chemical substance/The level of expressed mRNA in the absence of chemical substance” value (yeast gene YBL064C) was 1.7, the “The level of expressed mRNA in the presence of chemical substance/The level of expressed mRNA in the absence of chemical substance” value (yeast gene YBR008C) was 0.8 and the “The level of expressed mRNA in the presence of chemical substance/The level of expressed mRNA in the absence of chemical substance” value (yeast gene YBR145W) was 1.0. The “The level of expressed mRNA in the presence of chemical substance/The level of expressed mRNA in the absence of chemical substance” value (yeast gene YBR244W) was 0.5, the “The level of expressed mRNA in the presence of chemical substance/The level of expressed mRNA in the absence of chemical substance” value (yeast gene YBR293W) was 1.0 and the “The level of expressed mRNA in the presence of chemical substance/The level of expressed mRNA in the absence of chemical substance” value (yeast gene YCL035C) was 1.5. For the same compound, the “The level of expressed mRNA in the presence of chemical substance/The level of expressed mRNA in the absence of chemical substance” value (yeast gene YCL069W) was 0.9, the “The level of expressed mRNA in the presence of chemical substance/The level of expressed mRNA in the absence of chemical substance” value (yeast gene YCR083W) was 1.1 and the “The level of expressed mRNA in the presence of chemical substance/The level of expressed mRNA in the absence of chemical substance” value (yeast gene YDL100C) was 1.5. For the same compound, the “The level of expressed mRNA in the presence of chemical substance/The level of expressed mRNA in the absence of chemical substance” value (yeast gene YDL168W) was 0.6, the “The level of expressed mRNA in the presence of chemical substance/The level of expressed mRNA in the absence of chemical substance” value (yeast gene YDR256C) was 0.8 and the “The level of expressed mRNA in the presence of chemical substance/The level of expressed mRNA in the absence of chemical substance” value (yeast gene YDR453C) was 0.9. The “The level of expressed mRNA in the presence of chemical substance/The level of expressed mRNA in the absence of chemical substance” value (yeast gene YDR513W) was 0.9, the “The level of expressed mRNA in the presence of chemical substance/The level of expressed mRNA in the absence of chemical substance” value (yeast gene YDR538W) was 0.7 and the “The level of expressed mRNA in the presence of chemical substance/The level of expressed mRNA in the absence of chemical substance” value (yeast gene YEL027W) was 0.9. The “The level of expressed mRNA in the presence of chemical substance/The level of expressed mRNA in the absence of chemical substance” value (yeast gene YEL065W) was 1.7, the “The level of expressed mRNA in the presence of chemical substance/The level of expressed mRNA in the absence of chemical substance” value (yeast gene YER185W) was 1.1 and the “The level of expressed mRNA in the presence of chemical substance/The level of expressed mRNA in the absence of chemical substance” value (yeast gene YFL050C) was 0.9. For the same compound, the “The level of expressed mRNA in the presence of chemical substance/The level of expressed mRNA in the absence of chemical substance” value (yeast gene YGL013C) was 1.0, the “The level of expressed mRNA in the presence of chemical substance/The level of expressed mRNA in the absence of chemical substance” value (yeast gene YGL254W) was 1.2 and the “The level of expressed mRNA in the presence of chemical substance/The level of expressed mRNA in the absence of chemical substance” value (yeast gene YGR088W) was 1.1. For the same compound, the “The level of expressed mRNA in the presence of chemical substance/The level of expressed mRNA in the absence of chemical substance” value (yeast gene YGR138C) was 0.6, the “The level of expressed mRNA in the presence of chemical substance/The level of expressed mRNA in the absence of chemical substance” value (yeast gene YGR197C) was 1.2 and the “The level of expressed mRNA in the presence of chemical substance/The level of expressed mRNA in the absence of chemical substance” value (yeast gene YGR209C) was 0.9. The “The level of expressed mRNA in the presence of chemical substance/The level of expressed mRNA in the absence of chemical substance” value (yeast gene YGR224W) was 0.6, the “The level of expressed mRNA in the presence of chemical substance/The level of expressed mRNA in the absence of chemical substance” value (yeast gene YHL040C) was 2.0 and the “The level of expressed mRNA in the presence of chemical substance/The level of expressed mRNA in the absence of chemical substance” value (yeast gene YHL047C) was 2.6. For the same compound, the “The level of expressed mRNA in the presence of chemical substance/The level of expressed mRNA in the absence of chemical substance” value (yeast gene YHR008C) was 0.7, the “The level of expressed mRNA in the presence of chemical substance/The level of expressed mRNA in the absence of chemical substance” value (yeast gene YHR048W) was 0.9 and the “The level of expressed mRNA in the presence of chemical substance/The level of expressed mRNA in the absence of chemical substance” value (yeast gene YHR053C) was 1.1. For the same compound, the “The level of expressed mRNA in the presence of chemical substance/The level of expressed mRNA in the absence of chemical substance” value (yeast gene YHR055C) was 1.2, the “The level of expressed mRNA in the presence of chemical substance/The level of expressed mRNA in the absence of chemical substance” value (yeast gene YIR002C) was 1.3 and the “The level of expressed mRNA in the presence of chemical substance/The level of expressed mRNA in the absence of chemical substance” value (yeast gene YIR038C) was 1.1. For the same compound, the “The level of expressed mRNA in the presence of chemical substance/The level of expressed mRNA in the absence of chemical substance” value (yeast gene YJL101C) was 0.7, the “The level of expressed mRNA in the presence of chemical substance/The level of expressed mRNA in the absence of chemical substance” value (yeast gene YJR104C) was 0.9 and the “The level of expressed mRNA in the presence of chemical substance/The level of expressed mRNA in the absence of chemical substance” value (yeast gene YKL026C) was 1.0. For the same compound, the “The level of expressed mRNA in the presence of chemical substance/The level of expressed mRNA in the absence of chemical substance” value (yeast gene YKL064W) was 0.7, the “The level of expressed mRNA in the presence of chemical substance/The level of expressed mRNA in the absence of chemical substance” value (yeast gene YKR066C) was 0.9 and the “The level of expressed mRNA in the presence of chemical substance/The level of expressed mRNA in the absence of chemical substance” value (yeast gene YKR105C) was 0.8. The “The level of expressed mRNA in the presence of chemical substance/The level of expressed mRNA in the absence of chemical substance” value (yeast gene YKR106W) was 0.8, the “The level of expressed mRNA in the presence of chemical substance/The level of expressed mRNA in the absence of chemical substance” value (yeast gene YLL028W) was 1.3 and the “The level of expressed mRNA in the presence of chemical substance/The level of expressed mRNA in the absence of chemical substance” value (yeast gene YLL057C) was 0.7. The “The level of expressed mRNA in the presence of chemical substance/The level of expressed mRNA in the absence of chemical substance” value (yeast gene YLL060C) was 1.1, the “The level of expressed mRNA in the presence of chemical substance/The level of expressed mRNA in the absence of chemical substance” value (yeast gene YLR043C) was 0.8 and the “The level of expressed mRNA in the presence of chemical substance/The level of expressed mRNA in the absence of chemical substance” value (yeast gene YLR046C) was 0.8. For the same compound, the “The level of expressed mRNA in the presence of chemical substance/The level of expressed mRNA in the absence of chemical substance” value (yeast gene YML028W) was 1.6, the “The level of expressed mRNA in the presence of chemical substance/The level of expressed mRNA in the absence of chemical substance” value (yeast gene YML116W) was 0.5 and the “The level of expressed mRNA in the presence of chemical substance/The level of expressed mRNA in the absence of chemical substance” value (yeast gene YMR015C) was 0.9. The “The level of expressed mRNA in the presence of chemical substance/The level of expressed mRNA in the absence of chemical substance” value (yeast gene YMR038C) was 0.9, the “The level of expressed mRNA in the presence of chemical substance/The level of expressed mRNA in the absence of chemical substance” value (yeast gene YNL239W) was 1.5 and the “The level of expressed mRNA in the presence of chemical substance/The level of expressed mRNA in the absence of chemical substance” value (yeast gene YNL241C) was 2.0. The “The level of expressed mRNA in the presence of chemical substance/The level of expressed mRNA in the absence of chemical substance” value (yeast gene YNL259C) was 0.7, the “The level of expressed mRNA in the presence of chemical substance/The level of expressed mRNA in the absence of chemical substance” value (yeast gene YOL158C) was 0.9 and the “The level of expressed mRNA in the presence of chemical substance/The level of expressed mRNA in the absence of chemical substance” value (yeast gene YOR031W) was 0.8. For the same compound, the “The level of expressed mRNA in the presence of chemical substance/The level of expressed mRNA in the absence of chemical substance” value (yeast gene YOR153W) was 4.0, the “The level of expressed mRNA in the presence of chemical substance/The level of expressed mRNA in the absence of chemical substance” value (yeast gene YOR247W) was 0.6 and the “The level of expressed mRNA in the presence of chemical substance/The level of expressed mRNA in the absence of chemical substance” value (yeast gene YOR251C) was 0.9. For the same compound, the “The level of expressed mRNA in the presence of chemical substance/The level of expressed mRNA in the absence of chemical substance” value (yeast gene YOR273C) was 0.8, the “The level of expressed mRNA in the presence of chemical substance/The level of expressed mRNA in the absence of chemical substance” value (yeast gene YPL163C) was 0.9 and the “The level of expressed mRNA in the presence of chemical substance/The level of expressed mRNA in the absence of chemical substance” value (yeast gene YPR200C) was 0.4.
